The source made the active and inactive calls. The calls are words filed in the database; no cut-off is given here.
Tests used:
[1] = Stability in aqueous solution at below pH 7.0; assay type: physicochemical; details: buffer
[2] = test system: Candida; experiment: Antifungal activity against Candida spp.; assay type: functional
[3] = test system: Saccharomyces cerevisiae; experiment: Antifungal activity against Saccharomyces cerevisiae; assay type: functional
[4] = test system: Aspergillus fumigatus; experiment: Antifungal activity against Aspergillus fumigatus; assay type: functional
[5] = test system: Candida albicans; experiment: Antifungal activity against Candida albicans expressing DRE-2 heterozygous mutant; assay type: functional, organism-based
[6] = test system: Candida albicans; experiment: Growth stimulation in Candida albicans expressing DIP5 heterozygous mutant; assay type: functional, organism-based
[7] = test system: Candida albicans; experiment: Antifungal activity against wild-type Candida albicans assessed as hazy zone of inhibition by agar diffusion assay; assay type: functional, organism-based
[8] = test system: Candida albicans; experiment: Antifungal activity against Candida albicans expressing DRE-2 heterozygous mutant assessed as clear zone of inhibition by agar diffusion method; assay type: functional, organism-based

In the case of `NC(=O)C1=CN(O)C(C(=O)O)C1` (stereo not drawn) [listing 1 of 2 here], the Stability [1] is reported as “Unstable” and the MIC [2] is reported as greater than 8 µg/mL.
For `NC(=O)C1=CN(O)C(C(=O)[O-])C1.[K+]` (stereo not drawn), the MIC [3] was greater than 32 µg/mL and the MIC [4] was greater than 32 µg/mL.
With `NC(=O)C1=CN(O)C(C(=O)O)C1` (stereo not drawn) [listing 2 of 2 here] the Activity [5] was “Active”, the Activity [6] was “Active” and the “growth inhibition (GI)” value [7] was “Active”. The “growth inhibition (GI)” value [8] was “Active”.

— ChEMBL document CHEMBL3297659, “Discovery, isolation, and structure elucidation of dretamycin” (J Nat Prod, 2014)
